pKi: −log10 of the molar value.
What follows are compounds tested against GST-tagged-Wee1 kinase (Homo sapiens, UniProt P30291) (assay: Wee1 time-resolved fluorescence equilibrium binding assay (displacement of Oregon Green-labeled ATP-competitive kinase probe)). Settings: not given.
Experimental: Wee1 kinase was assayed using a time-resolved fluorescence equilibrium binding assay monitoring displacement of a rapidly reversible Oregon Green-labeled ATP-competitive kinase probe (N-(2-(2-(2-(4-(4-(5-chloro-4-(2-(1-hydroxycyclobutyl)thiazol-5-yl)-1H-pyrrolo[2,3-b]pyridin-2-yl)phenyl)piperazin-1-yl)ethoxy)ethoxy)ethyl)-2′,7′-difluoro-3′,6′-dihydroxy-3-oxo-3H-spiro[isobenzofuran-1,9′-xanthene]-5-carboxamide) by competitive Wee1 inhibitors.

GST-tagged-Wee1 kinase, sequence (P30291 whole entry): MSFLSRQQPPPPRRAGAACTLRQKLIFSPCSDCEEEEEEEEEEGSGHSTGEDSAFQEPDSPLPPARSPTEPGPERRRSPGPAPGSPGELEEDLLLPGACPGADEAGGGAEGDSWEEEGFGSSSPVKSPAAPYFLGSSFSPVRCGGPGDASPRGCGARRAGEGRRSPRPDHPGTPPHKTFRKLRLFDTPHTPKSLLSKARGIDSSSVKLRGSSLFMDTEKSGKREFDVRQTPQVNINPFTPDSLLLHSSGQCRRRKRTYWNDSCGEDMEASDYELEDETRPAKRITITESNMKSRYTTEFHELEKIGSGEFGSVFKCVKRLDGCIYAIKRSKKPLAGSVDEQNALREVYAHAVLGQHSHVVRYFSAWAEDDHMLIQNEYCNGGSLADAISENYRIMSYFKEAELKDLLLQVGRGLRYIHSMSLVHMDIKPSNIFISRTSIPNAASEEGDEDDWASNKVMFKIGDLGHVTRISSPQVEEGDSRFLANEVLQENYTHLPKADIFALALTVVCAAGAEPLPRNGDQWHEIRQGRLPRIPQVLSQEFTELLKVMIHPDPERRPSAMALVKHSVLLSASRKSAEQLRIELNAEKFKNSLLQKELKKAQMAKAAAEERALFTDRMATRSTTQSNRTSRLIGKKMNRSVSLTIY

Compound | pKi
C=CCn1nc(CCC)c2nc(Nc3ccc(N4CCN(C)CC4)cc3)ncc2c1=O [Example 16, 6-allyl-2-{[4-(4-methylpiperazin-1-yl)phenyl]amino}-8-propylpyrimido[4,5-d]pyridazin-5(6H)-one] | 6.89
C=CCn1nc(-c2cccs2)c2nc(Nc3ccc(N4CCCN(C(C)C)CC4)c(C)c3)ncc2c1=O [Example 163, 6-allyl-2-{[4-(4-isopropyl-1,4-diazepan-1-yl)-3-methylphenyl]amino}-8-(2-thienyl)pyrimido[4,5-d]pyridazin-5(6H)-one] | 8.40
Cc1nn(C)c(=O)c2cnc(Nc3ccc(N4CCN(C)CC4)cc3)nc12 [Example 1, 6,8-dimethyl-2-{[4-(4-methylpiperazin-1-yl)phenyl]amino}pyrimido[4,5-d]pyridazin-5(6H)-one] | 5.72
CN1CCN(c2ccc(Nc3ncc4c(=O)n(-c5ccccc5)nc(CCc5ccccc5)c4n3)cc2)CC1 [Example 9, 2-{[4-(4-methylpiperazin-1-yl)phenyl]amino}-6-phenyl-8-(2-phenylethyl)pyrimido[4,5-d]pyridazin-5(6H)-one] | 7.21
CN1CCN(c2ccc(Nc3ncc4c(=O)n(-c5c(Cl)cccc5Cl)nc(-c5cccc(N(C)C)c5)c4n3)cc2)CC1 [Example 90, 6-(2,6-dichlorophenyl)-8-[3-(dimethylamino)phenyl]-2-{[4-(4-methylpiperazin-1-yl)phenyl]amino}pyrimido[4,5-d]pyridazin-5(6H)-one] | 9.70
CN1CCN(c2ccc(Nc3ncc4c(=O)n(-c5ccccc5Cl)nc(-c5cccnc5)c4n3)cc2)CC1 [Example 98, 6-(2-chlorophenyl)-2-{[4-(4-methylpiperazin-1-yl)phenyl]amino}-8-(pyridin-3-yl)pyrimido[4,5-d]pyridazin-5(6H)-one] | 9.30
CN1Cc2cc(Nc3ncc4c(=O)n(-c5c(Cl)cccc5Cl)nc(-c5cccnc5)c4n3)ccc2C2(CC2)C1 [Example 101, 6-(2,6-dichlorophenyl)-2-[(2′-methyl-2′,3′-dihydro-1′H-spiro[cyclopropane-1,4′-isoquinolin]-7′-yl)amino]-8-(pyridin-3-yl)pyrimido[4,5-d]pyridazin-5(6H)-one] | 10.70
CCCc1nn(C)c(=O)c2cnc(Nc3ccc(N4CCN(C)CC4)cc3)nc12 [Example 11, 6-methyl-2-{[4-(4-methylpiperazin-1-yl)phenyl]amino}-8-propylpyrimido[4,5-d]pyridazin-5(6H)-one] | 6.14
CN1CCN(c2ccc(Nc3ncc4c(=O)n(-c5cccc(F)c5)nc(C5CC(F)(F)C5)c4n3)cc2)CC1 [Example 199, 8-(3,3-difluorocyclobutyl)-6-(3-fluorophenyl)-2-{[4-(4-methylpiperazin-1-yl)phenyl]amino}pyrimido[4,5-d]pyridazin-5(6H)-one] | 7.09
CN1CCN(c2ccc(Nc3ncc4c(=O)n(-c5c(Cl)cccc5Cl)nc(-c5ccncc5)c4n3)cc2)CC1 [Example 156, 6-(2,6-dichlorophenyl)-2-{[4-(4-methylpiperazin-1-yl)phenyl]amino}-8-(pyridin-4-yl)pyrimido[4,5-d]pyridazin-5(6H)-one] | 10.52
Cc1ccccc1-n1nc(-c2ccc(-c3ncccn3)cc2)c2nc(Nc3ccc(N4CCN(C)CC4)cc3)ncc2c1=O [Example 64, 6-(2-methylphenyl)-2-{[4-(4-methylpiperazin-1-yl)phenyl]amino}-8-[4-(pyrimidin-2-yl)phenyl]pyrimido[4,5-d]pyridazin-5(6H)-one] | 9.52
C=CCn1nc(-c2cccs2)c2nc(Nc3ccc(N4CCN(C(C)C)CC4)c(C)c3)ncc2c1=O [Example 127, 6-allyl-2-{[4-(4-isopropylpiperazin-1-yl)-3-methylphenyl]amino}-8-(2-thienyl)pyrimido[4,5-d]pyridazin-5(6H)-one] | 8.40
COc1ccccc1-n1nc(-c2ccccc2)c2nc(Nc3ccc(N4CCN(C)CC4)cc3)ncc2c1=O [Example 30, 6-(2-methoxyphenyl)-2-{[4-(4-methylpiperazin-1-yl)phenyl]amino}-8-phenylpyrimido[4,5-d]pyridazin-5(6H)-one] | 9.00
CN1CCN(c2ccc(Nc3ncc4c(=O)n(-c5c(Cl)cccc5Cl)nc(-c5cncn5C)c4n3)cc2)CC1 [Example 203, 6-(2,6-dichlorophenyl)-8-(1-methyl-1H-imidazol-5-yl)-2-{[4-(4-methylpiperazin-1-yl)phenyl]amino}pyrimido[4,5-d]pyridazin-5(6H)-one] | 9.70
C=CCn1nc(-c2cccs2)c2nc(Nc3ccc(CN(C)C)cc3)ncc2c1=O [Example 210, 2-({4-[(dimethylamino)methyl]phenyl}amino)-6-(prop-2-en-1-yl)-8-(thiophen-2-yl)pyrimido[4,5-d]pyridazin-5(6H)-one] | 7.48

Continued, values first:

pKi | Compound
8.12 | CN1CCN(c2ccc(Nc3ncc4c(=O)n(-c5ccncc5Cl)nc(-c5ccncc5)c4n3)cc2)CC1 [Example 382, 6-(3-chloropyridin-4-yl)-2-{[4-(4-methylpiperazin-1-yl)phenyl]amino}-8-(pyridin-4-yl)pyrimido[4,5-d]pyridazin-5(6H)-one]
9.57 | Cc1nn(-c2c(Cl)cccc2Cl)c(=O)c2cnc(Nc3ccc(N4CC5CNCC5C4)cc3)nc12 (stereo not shown) [Example 446, 6-(2,6-dichlorophenyl)-2-{[4-(hexahydropyrrolo[3,4-c]pyrrol-2(1H)-yl)phenyl]amino}-8-methylpyrimido[4,5-d]pyridazin-5(6H)-one]
9.29 | Cc1cccc(Cl)c1-n1nc(C)c2nc(Nc3ccc(N4CCN(CCCN(C)C)CC4)cc3)ncc2c1=O [Example 500, 6-(2-chloro-6-methylphenyl)-2-[(4-{4-[3-(dimethylamino)propyl]piperazin-1-yl}phenyl)amino]-8-methylpyrimido[4,5-d]pyridazin-5(6H)-one]
9.47 | Cc1cccc(Cl)c1-n1nc(C)c2nc(Nc3ccc4c(c3)CCNC4)ncc2c1=O [Example 496, 6-(2-chloro-6-methylphenyl)-8-methyl-2-(1,2,3,4-tetrahydroisoquinolin-6-ylamino)pyrimido[4,5-d]pyridazin-5(6H)-one]
9.15 | CN1Cc2cc(Nc3ncc4c(=O)n(-c5c(Cl)cccc5Cl)nc(-c5cn(C)cn5)c4n3)ccc2C2(CC2)C1 [Example 339, 6-(2,6-dichlorophenyl)-2-[(2′-methyl-2′,3′-dihydro-1′H-spiro[cyclopropane-1,4′-isoquinolin]-7′-yl)amino]-8-(1-methyl-1H-imidazol-4-yl)pyrimido[4,5-d]pyridazin-5(6H)-one]
8.96 | O=c1c2cnc(Nc3ccc4c(c3)CNCC43CC3)nc2c(-c2ccncc2)nn1-c1ccncc1Cl [Example 383, 6-(3-chloropyridin-4-yl)-2-(2′,3′-dihydro-1′H-spiro[cyclopropane-1,4′-isoquinolin]-7′-ylamino)-8-(pyridin-4-yl)pyrimido[4,5-d]pyridazin-5(6H)-one]
8.55 | CN1CCN(c2ccc(Nc3ncc4c(=O)n(-c5c(F)cccc5Cl)nc(-c5cccc(O)n5)c4n3)cc2)CC1 [Example 303, 6-(2-chloro-6-fluorophenyl)-8-(6-hydroxypyridin-2-yl)-2-{[4-(4-methylpiperazin-1-yl)phenyl]amino}pyrimido[4,5-d]pyridazin-5(6H)-one]
9.09 | Cc1nn(-c2c(Cl)cccc2Cl)c(=O)c2cnc(Nc3ccc4c(c3)CN(C(=O)C3CC3)CC4(C)C)nc12 [Example 440, 2-{[2-(cyclopropylcarbonyl)-4,4-dimethyl-1,2,3,4-tetrahydroisoquinolin-7-yl]amino}-6-(2,6-dichlorophenyl)-8-methylpyrimido[4,5-d]pyridazin-5(6H)-one]
9.00 | Cc1nn(-c2c(F)cccc2Cl)c(=O)c2cnc(Nc3ccc4c(c3)CNCC43CC3)nc12 [Example 308]
8.92 | COC(=O)c1ccc(-c2nn(-c3c(Cl)cccc3Cl)c(=O)c3cnc(Nc4ccc(N5CCN(C)CC5)cc4)nc23)cc1 [Example 277, methyl 4-[6-(2,6-dichlorophenyl)-2-{[4-(4-methylpiperazin-1-yl)phenyl]amino}-5-oxo-5,6-dihydropyrimido[4,5-d]pyridazin-8-yl]benzoate]
8.92 | Cc1nn(-c2c(Cl)cccc2Cl)c(=O)c2cnc(Nc3cccc(N4CCN(C5CCOCC5)CC4)c3)nc12 [Example 509, 6-(2,6-dichlorophenyl)-8-methyl-2-({3-[4-(tetrahydro-2H-pyran-4-yl)piperazin-1-yl]phenyl}amino)pyrimido[4,5-d]pyridazin-5(6H)-one]
9.26 | Cc1nn(-c2ccccc2Cl)c(=O)c2cnc(Nc3ccc4c(c3)CN(C)CC4(C)C)nc12 [Example 483, 6-(2-chlorophenyl)-8-methyl-2-[(2,4,4-trimethyl-1,2,3,4-tetrahydroisoquinolin-7-yl)amino]pyrimido[4,5-d]pyridazin-5(6H)-one]
9.28 | O=c1c2cnc(Nc3ccc4c(c3)CNCC43CC3)nc2cnn1-c1c(Cl)cccc1Cl [Example 326, 6-(2,6-dichlorophenyl)-2-(2′,3′-dihydro-1′H-spiro[cyclopropane-1,4′-isoquinolin]-7′-ylamino)pyrimido[4,5-d]pyridazin-5(6H)-one]
6.74 | CC1CCCC(C)C1n1nc(-c2ccccn2)c2nc(Nc3ccc4c(c3)CNCC4(C)C)ncc2c1=O (stereo not shown) [Example 331, 6-(2,6-dimethylcyclohexyl)-2-[(4,4-dimethyl-1,2,3,4-tetrahydroisoquinolin-7-yl)amino]-8-(pyridin-2-yl)pyrimido[4,5-d]pyridazin-5(6H)-one]
6.75 | CC(C)n1nc(-c2ccccn2)c2nc(Nc3ccc4c(c3)CN(C)CC43CC3)ncc2c1=O [Example 274, 2-[(2′-methyl-2′,3′-dihydro-1′H-spiro[cyclopropane-1,4′-isoquinolin]-7′-yl)amino]-6-(propan-2-yl)-8-(pyridin-2-yl)pyrimido[4,5-d]pyridazin-5(6H)-one]

Same assay, conditions: read-out: Wee-1 inhibition Ki

Compound | pKi
6-(2-chlorophenyl)-2-{[4-(4-methylpiperazin-1-yl)phenyl]amino}-8-(1-methyl-1H-pyrazol-4-yl)pyrimido[4,5-d]pyridazin-5(6H)-one [Example 86] | 9.00
